# Measurements from the kinase profiling compilation of Christmann-Franck et al. (2016).
# What was measured:
# Assay in all cases: KINOMEscan competition binding
# [1] = molecular target: MAPK13 (human) (UniProt O15264); conditions: compound 1.0 µM
# [2] = molecular target: TNK2 (human) (UniProt Q07912); conditions: compound 1.0 µM
# [3] = tested on: EGFR (human), P00533 [746-750 del]; conditions: compound 1.0 µM
# [4] = tested on: RET (human), P07949 [V804L]; conditions: compound 1.0 µM
# [5] = molecular target: PIK3C2B (human) (UniProt O00750); conditions: compound 1.0 µM
# [6] = molecular target: MYLK (human) (UniProt Q15746); conditions: compound 1.0 µM
# [7] = molecular target: MAP3K7 (human) (UniProt O43318); conditions: compound 1.0 µM
# [8] = molecular target: KDR (human) (UniProt P35968); conditions: compound 1.0 µM
# [9] = molecular target: BRAF (human) (UniProt P15056); conditions: compound 1.0 µM
# [10] = molecular target: PAK6 (human) (UniProt Q9NQU5); conditions: compound 1.0 µM
# [11] = molecular target: DAPK3 (human) (UniProt O43293); conditions: compound 1.0 µM
# [12] = tested on: EGFR (human), P00533 [T790M]; conditions: compound 1.0 µM
# [13] = molecular target: PIP4K2C (human) (UniProt Q8TBX8); conditions: for kinase still bound, per cent of control: compound 1.0 µM
# [14] = molecular target: CAMK2D (human) (UniProt Q13557); conditions: compound 1.0 µM
# [15] = molecular target: AURKB (human) (UniProt Q96GD4); conditions: compound 1.0 µM
# [16] = molecular target: EPHB4 (human) (UniProt P54760); conditions: compound 1.0 µM
# [17] = molecular target: ACVR2A (human) (UniProt P27037); conditions: compound 1.0 µM
# [18] = tested on: EGFR (human), P00533 [L861Q]; conditions: compound 1.0 µM
# [19] = molecular target: RPS6KA4 KD2 (human) (UniProt O75676); conditions: compound 1.0 µM
# [20] = molecular target: MAPK3 (human) (UniProt P27361); conditions: compound 1.0 µM
# [21] = molecular target: MAPK11 (human) (UniProt Q15759); conditions: compound 1.0 µM
# [22] = molecular target: FLT3 (human) (UniProt P36888); conditions: compound 1.0 µM
# [23] = molecular target: MAP4K3 (human) (UniProt Q8IVH8); conditions: compound 1.0 µM
# [24] = molecular target: SGK3 (human) (UniProt Q96BR1); conditions: compound 1.0 µM
# [25] = molecular target: DDR2 (human) (UniProt Q16832); conditions: compound 1.0 µM
# [26] = molecular target: EIF2AK2 (human) (UniProt P19525); conditions: compound 1.0 µM
# [27] = molecular target: LATS1 (human) (UniProt O95835); conditions: compound 1.0 µM
# [28] = tested on: FLT3 (human), P36888 [K663Q]; conditions: compound 1.0 µM
# [29] = molecular target: EPHA5 (human) (UniProt P54756); conditions: compound 1.0 µM
# [30] = molecular target: TEK (human) (UniProt Q02763); conditions: compound 1.0 µM
# [31] = molecular target: MAPK6 (human) (UniProt Q16659); conditions: for kinase still bound, per cent of control: compound 1.0 µM
# [32] = tested on: ABL1 (human), P00519 [M351T]; conditions: compound 1.0 µM
# [33] = molecular target: PRKACA (human) (UniProt P17612); conditions: compound 1.0 µM
# [34] = molecular target: JAK2 JH1 catalytic (human) (UniProt O60674); conditions: compound 1.0 µM
# [35] = molecular target: MAP3K1 (human) (UniProt Q13233); conditions: compound 1.0 µM
# [36] = molecular target: PRKAA1 (human) (UniProt Q13131); conditions: compound 1.0 µM
# [37] = tested on: PIK3CA (human), P42336 [C420R]; conditions: compound 1.0 µM
# [38] = molecular target: MARK1 (human) (UniProt Q9P0L2); conditions: compound 1.0 µM
# [39] = molecular target: RET (human) (UniProt P07949); conditions: compound 1.0 µM
# [40] = molecular target: KIT (human) (UniProt P10721); conditions: compound 1.0 µM
# [41] = molecular target: CHEK2 (human) (UniProt O96017); conditions: compound 1.0 µM
# [42] = molecular target: LCK (human) (UniProt P06239); conditions: compound 1.0 µM
# Sequence of PIP4K2C (human) (Q8TBX8 whole entry, looked up): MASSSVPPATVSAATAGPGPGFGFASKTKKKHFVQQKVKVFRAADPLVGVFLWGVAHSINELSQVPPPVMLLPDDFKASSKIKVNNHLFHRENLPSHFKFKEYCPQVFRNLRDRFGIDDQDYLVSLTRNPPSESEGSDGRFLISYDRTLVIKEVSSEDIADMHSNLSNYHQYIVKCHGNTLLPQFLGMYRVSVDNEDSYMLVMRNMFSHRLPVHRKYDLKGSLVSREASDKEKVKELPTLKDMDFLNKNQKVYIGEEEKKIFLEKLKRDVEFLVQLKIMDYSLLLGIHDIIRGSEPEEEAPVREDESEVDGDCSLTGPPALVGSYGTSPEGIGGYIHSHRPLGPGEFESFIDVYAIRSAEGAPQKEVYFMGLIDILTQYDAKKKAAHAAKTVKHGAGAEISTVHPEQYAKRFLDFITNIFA
# Sequence of MAPK6 (human) (Q16659 whole entry, looked up): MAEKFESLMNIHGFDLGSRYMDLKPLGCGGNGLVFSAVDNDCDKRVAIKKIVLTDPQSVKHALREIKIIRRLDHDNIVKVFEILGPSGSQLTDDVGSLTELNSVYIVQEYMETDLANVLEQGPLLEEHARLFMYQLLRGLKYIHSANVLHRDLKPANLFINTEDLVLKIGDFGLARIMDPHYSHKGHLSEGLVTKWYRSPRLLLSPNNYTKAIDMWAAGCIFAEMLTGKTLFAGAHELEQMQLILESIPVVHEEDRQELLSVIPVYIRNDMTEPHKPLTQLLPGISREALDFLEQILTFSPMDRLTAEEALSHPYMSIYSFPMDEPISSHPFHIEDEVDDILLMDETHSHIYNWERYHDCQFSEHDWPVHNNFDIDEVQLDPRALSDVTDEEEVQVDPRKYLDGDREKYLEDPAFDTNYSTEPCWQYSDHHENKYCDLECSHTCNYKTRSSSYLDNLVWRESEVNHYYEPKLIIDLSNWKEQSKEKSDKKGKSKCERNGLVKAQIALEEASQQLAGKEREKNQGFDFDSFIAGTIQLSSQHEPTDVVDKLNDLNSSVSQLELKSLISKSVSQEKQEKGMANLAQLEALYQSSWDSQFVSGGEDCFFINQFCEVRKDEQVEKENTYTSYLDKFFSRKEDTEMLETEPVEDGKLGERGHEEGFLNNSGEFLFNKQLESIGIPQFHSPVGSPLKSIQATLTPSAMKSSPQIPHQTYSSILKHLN
# Sequence of ACVR2A (human) (P27037 whole entry, looked up): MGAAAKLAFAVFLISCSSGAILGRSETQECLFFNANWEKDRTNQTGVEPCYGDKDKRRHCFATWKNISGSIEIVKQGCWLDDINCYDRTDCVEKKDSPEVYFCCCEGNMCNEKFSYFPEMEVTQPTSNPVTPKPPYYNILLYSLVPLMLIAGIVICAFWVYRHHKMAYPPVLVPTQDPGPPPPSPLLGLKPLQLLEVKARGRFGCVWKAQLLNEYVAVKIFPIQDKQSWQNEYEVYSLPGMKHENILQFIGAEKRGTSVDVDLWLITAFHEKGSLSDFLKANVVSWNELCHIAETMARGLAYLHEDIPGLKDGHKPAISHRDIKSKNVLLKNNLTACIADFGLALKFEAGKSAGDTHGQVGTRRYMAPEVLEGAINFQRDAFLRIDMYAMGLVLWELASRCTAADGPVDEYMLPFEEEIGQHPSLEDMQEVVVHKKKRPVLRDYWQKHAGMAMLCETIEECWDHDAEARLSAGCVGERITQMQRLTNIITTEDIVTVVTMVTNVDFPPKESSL
# Sequence of EPHB4 (human) (P54760 whole entry, looked up): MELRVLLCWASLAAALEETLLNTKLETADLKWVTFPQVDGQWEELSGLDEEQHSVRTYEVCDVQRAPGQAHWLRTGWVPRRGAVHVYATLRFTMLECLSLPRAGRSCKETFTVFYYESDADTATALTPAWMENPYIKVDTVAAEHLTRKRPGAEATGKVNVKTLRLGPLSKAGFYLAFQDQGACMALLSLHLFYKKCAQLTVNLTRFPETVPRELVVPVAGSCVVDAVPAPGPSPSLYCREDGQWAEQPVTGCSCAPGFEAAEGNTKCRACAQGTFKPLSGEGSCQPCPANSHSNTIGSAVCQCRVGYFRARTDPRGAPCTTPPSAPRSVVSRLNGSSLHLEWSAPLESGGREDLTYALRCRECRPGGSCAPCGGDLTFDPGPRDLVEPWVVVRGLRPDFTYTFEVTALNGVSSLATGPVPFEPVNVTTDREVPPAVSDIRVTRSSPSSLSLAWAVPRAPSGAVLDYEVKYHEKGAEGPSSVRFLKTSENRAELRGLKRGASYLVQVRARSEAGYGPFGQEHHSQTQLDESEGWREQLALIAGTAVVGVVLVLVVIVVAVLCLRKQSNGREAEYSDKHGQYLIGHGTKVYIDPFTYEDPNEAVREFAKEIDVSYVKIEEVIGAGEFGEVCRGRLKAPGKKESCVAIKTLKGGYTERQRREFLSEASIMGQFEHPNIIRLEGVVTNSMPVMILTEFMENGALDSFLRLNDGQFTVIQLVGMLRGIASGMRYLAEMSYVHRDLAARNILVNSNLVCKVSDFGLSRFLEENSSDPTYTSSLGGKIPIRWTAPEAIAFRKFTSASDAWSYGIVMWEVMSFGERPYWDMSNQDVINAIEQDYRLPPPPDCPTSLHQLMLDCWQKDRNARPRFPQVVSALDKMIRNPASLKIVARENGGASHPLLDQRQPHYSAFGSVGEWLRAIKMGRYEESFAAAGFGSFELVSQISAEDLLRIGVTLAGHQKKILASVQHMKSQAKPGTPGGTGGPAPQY
# Sequence of MAP3K7 (human) (O43318 whole entry, looked up): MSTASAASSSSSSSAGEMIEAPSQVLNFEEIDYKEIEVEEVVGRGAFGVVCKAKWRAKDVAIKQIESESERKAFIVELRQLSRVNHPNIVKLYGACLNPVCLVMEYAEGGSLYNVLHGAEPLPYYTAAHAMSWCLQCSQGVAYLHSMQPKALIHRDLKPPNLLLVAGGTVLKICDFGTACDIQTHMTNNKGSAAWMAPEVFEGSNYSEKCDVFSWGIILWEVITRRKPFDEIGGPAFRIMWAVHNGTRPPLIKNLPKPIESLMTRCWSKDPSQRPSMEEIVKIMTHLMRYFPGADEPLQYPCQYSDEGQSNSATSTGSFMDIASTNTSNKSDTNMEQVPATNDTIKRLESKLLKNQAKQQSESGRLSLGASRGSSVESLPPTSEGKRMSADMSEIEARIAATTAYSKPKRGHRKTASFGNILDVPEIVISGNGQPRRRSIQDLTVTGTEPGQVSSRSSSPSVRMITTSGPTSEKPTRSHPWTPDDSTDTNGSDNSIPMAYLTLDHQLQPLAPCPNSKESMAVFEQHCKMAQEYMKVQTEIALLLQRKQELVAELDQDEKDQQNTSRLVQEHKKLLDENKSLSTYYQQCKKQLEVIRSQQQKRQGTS
# Sequence of RPS6KA4 KD2 (human) (O75676 whole entry, looked up): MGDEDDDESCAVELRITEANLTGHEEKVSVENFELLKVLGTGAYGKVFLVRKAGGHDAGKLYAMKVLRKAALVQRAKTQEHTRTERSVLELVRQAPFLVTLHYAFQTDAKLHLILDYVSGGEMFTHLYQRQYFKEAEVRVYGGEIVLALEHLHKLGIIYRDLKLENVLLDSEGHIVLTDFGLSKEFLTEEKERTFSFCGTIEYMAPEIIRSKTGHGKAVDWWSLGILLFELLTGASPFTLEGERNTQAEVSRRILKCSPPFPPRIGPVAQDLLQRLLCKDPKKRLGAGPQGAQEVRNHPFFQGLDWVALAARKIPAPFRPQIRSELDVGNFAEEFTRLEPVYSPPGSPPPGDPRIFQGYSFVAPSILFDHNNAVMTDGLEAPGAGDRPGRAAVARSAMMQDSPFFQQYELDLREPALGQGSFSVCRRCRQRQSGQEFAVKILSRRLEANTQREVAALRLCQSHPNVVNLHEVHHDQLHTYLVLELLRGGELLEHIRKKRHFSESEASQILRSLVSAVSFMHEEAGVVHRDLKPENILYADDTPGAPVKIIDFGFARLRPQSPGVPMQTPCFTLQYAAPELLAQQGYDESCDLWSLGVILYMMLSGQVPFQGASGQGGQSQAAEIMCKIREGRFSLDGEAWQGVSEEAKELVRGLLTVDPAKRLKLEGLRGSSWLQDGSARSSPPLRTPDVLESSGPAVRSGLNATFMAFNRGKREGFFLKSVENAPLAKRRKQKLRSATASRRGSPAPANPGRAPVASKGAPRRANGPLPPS
# Sequence of MAPK11 (human) (Q15759 whole entry, looked up): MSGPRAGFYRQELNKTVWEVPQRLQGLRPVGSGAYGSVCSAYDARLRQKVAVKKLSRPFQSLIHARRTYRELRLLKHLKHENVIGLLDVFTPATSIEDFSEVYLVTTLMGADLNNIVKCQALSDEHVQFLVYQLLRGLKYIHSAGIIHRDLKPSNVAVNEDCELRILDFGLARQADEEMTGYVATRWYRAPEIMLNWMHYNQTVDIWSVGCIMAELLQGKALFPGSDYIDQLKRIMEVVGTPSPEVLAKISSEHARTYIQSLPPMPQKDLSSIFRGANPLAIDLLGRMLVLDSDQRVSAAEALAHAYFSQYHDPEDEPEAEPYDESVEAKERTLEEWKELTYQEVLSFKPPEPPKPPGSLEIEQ
# Sequence of SGK3 (human) (Q96BR1 whole entry, looked up): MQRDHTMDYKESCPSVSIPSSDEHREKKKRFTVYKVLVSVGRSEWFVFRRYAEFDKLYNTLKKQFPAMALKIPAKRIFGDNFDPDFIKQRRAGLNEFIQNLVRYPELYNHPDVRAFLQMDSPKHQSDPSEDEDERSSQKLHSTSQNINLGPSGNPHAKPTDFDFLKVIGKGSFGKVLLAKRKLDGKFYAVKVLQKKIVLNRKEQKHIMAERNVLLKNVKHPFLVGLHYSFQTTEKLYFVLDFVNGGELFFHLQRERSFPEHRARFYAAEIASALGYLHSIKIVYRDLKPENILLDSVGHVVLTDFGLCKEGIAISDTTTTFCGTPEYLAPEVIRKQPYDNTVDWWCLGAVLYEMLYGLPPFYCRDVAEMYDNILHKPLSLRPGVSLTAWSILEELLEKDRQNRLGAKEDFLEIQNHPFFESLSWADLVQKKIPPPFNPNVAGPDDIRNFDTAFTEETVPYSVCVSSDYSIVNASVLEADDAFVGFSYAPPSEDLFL
compound,measurement,setting,value
CN(C)C/C=C/C(=O)Nc1cccc(C(=O)Nc2ccc(Nc3nccc(-c4c(-c5ccccc5)nn5ccccc45)n3)cc2)c1,"kinase still bound, per cent of control",[1],100%
same,"kinase still bound, per cent of control",[2],100%
same,"kinase still bound, per cent of control",[3],0%
same,"kinase still bound, per cent of control",[4],89%
same,"kinase still bound, per cent of control",[5],100%
same,"kinase still bound, per cent of control",[6],77%
same,"kinase still bound, per cent of control",[7],47%
same,"kinase still bound, per cent of control",[8],17%
same,"kinase still bound, per cent of control",[9],43%
same,"kinase still bound, per cent of control",[10],100%
same,"kinase still bound, per cent of control",[11],93%
same,"kinase still bound, per cent of control",[12],11%
same,"kinase still bound, per cent of control",[13],86%
same,"kinase still bound, per cent of control",[14],100%
same,"kinase still bound, per cent of control",[15],85%
same,"kinase still bound, per cent of control",[16],43%
same,"kinase still bound, per cent of control",[17],5.1%
same,"kinase still bound, per cent of control",[18],0.75%
same,"kinase still bound, per cent of control",[19],91%
same,"kinase still bound, per cent of control",[20],100%
same,"kinase still bound, per cent of control",[21],6.6%
same,"kinase still bound, per cent of control",[22],1%
same,"kinase still bound, per cent of control",[23],59%
same,"kinase still bound, per cent of control",[24],91%
same,"kinase still bound, per cent of control",[25],9%
same,"kinase still bound, per cent of control",[26],92%
same,"kinase still bound, per cent of control",[27],95%
same,"kinase still bound, per cent of control",[28],12%
same,"kinase still bound, per cent of control",[29],98%
same,"kinase still bound, per cent of control",[30],67%
same,"kinase still bound, per cent of control",[31],71%
same,"kinase still bound, per cent of control",[32],14%
same,"kinase still bound, per cent of control",[33],99%
same,"kinase still bound, per cent of control",[34],100%
same,"kinase still bound, per cent of control",[35],96%
same,"kinase still bound, per cent of control",[36],100%
same,"kinase still bound, per cent of control",[37],100%
same,"kinase still bound, per cent of control",[38],100%
same,"kinase still bound, per cent of control",[39],8.3%
same,"kinase still bound, per cent of control",[40],0.15%
same,"kinase still bound, per cent of control",[41],100%
same,"kinase still bound, per cent of control",[42],8.6%
CN(C)C/C=C/C(=O)Nc1cccc(C(=O)Nc2ccc(Nc3nccc(-c4cccnc4)n3)cc2)c1,"kinase still bound, per cent of control",[1],100%
same,"kinase still bound, per cent of control",[2],100%
same,"kinase still bound, per cent of control",[3],88%
same,"kinase still bound, per cent of control",[4],100%
same,"kinase still bound, per cent of control",[5],100%
same,"kinase still bound, per cent of control",[6],100%
same,"kinase still bound, per cent of control",[7],34%
same,"kinase still bound, per cent of control",[8],100%
same,"kinase still bound, per cent of control",[9],95%
same,"kinase still bound, per cent of control",[10],87%
same,"kinase still bound, per cent of control",[11],65%
same,"kinase still bound, per cent of control",[12],91%
same,Kd,[13],32 nM
same,"kinase still bound, per cent of control",[13],3.3%
same,"kinase still bound, per cent of control",[14],100%
same,"kinase still bound, per cent of control",[15],63%
same,"kinase still bound, per cent of control",[16],100%
same,"kinase still bound, per cent of control",[17],43%
same,"kinase still bound, per cent of control",[18],84%
same,"kinase still bound, per cent of control",[19],65%
same,"kinase still bound, per cent of control",[20],100%
same,"kinase still bound, per cent of control",[21],95%
same,"kinase still bound, per cent of control",[22],64%
same,"kinase still bound, per cent of control",[23],38%
same,"kinase still bound, per cent of control",[24],100%
same,"kinase still bound, per cent of control",[25],53%
same,"kinase still bound, per cent of control",[26],53%
same,"kinase still bound, per cent of control",[27],100%
same,"kinase still bound, per cent of control",[28],48%
same,"kinase still bound, per cent of control",[29],96%
same,"kinase still bound, per cent of control",[30],98%
same,Kd,[31],22 nM
same,"kinase still bound, per cent of control",[31],0.4%
same,"kinase still bound, per cent of control",[32],42%
same,"kinase still bound, per cent of control",[33],83%
same,"kinase still bound, per cent of control",[34],50%
same,"kinase still bound, per cent of control",[35],85%
same,"kinase still bound, per cent of control",[36],92%
same,"kinase still bound, per cent of control",[37],100%
same,"kinase still bound, per cent of control",[38],68%
same,"kinase still bound, per cent of control",[39],100%
same,"kinase still bound, per cent of control",[40],2.4%
same,"kinase still bound, per cent of control",[41],100%
same,"kinase still bound, per cent of control",[42],100%
